Measurements taken from patent publication US8664257B2, “Oxygen-substituted 3-heteroaroylamino-propionic acid derivatives and their use as pharmaceuticals” (Sanofi, priority 2010, dated 2014).

These compounds were tested against T1, Recombinant human cathepsin A (Homo sapiens, UniProt P10619) (assay: Cathepsin A inhibitory activity). Settings: read-out: Activity (2): Cathepsin A inhibitory activity (IC50 class).
T1 construct: Recombinant human cathepsin A (residues 29-480, with a C-terminal 10-His tag); 10-His (C); purchased R&D Systems 1049-SE
T1 sequence (P10619 29-312 limits assumed): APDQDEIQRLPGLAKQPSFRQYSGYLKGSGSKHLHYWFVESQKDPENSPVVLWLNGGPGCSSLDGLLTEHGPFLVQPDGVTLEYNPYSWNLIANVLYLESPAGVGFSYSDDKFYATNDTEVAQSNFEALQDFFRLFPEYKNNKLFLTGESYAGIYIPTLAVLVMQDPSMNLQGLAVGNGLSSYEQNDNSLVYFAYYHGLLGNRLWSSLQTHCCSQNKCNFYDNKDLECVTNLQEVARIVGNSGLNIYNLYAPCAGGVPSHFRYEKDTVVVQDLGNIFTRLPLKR
T1 sequence (P10619 327-480 limits assumed): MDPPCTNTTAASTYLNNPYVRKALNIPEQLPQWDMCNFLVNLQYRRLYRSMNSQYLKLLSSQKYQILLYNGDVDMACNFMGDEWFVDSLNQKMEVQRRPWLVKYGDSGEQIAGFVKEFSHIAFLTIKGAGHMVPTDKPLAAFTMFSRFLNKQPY
Assay type: biochemical
Method in brief: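 Read-out was microfluidic separation of cleaved vs. uncleaved Bodipy FL-bradykinin (2 μM), giving turnover, % inhibition and IC50. Compound and 833 ng/ml enzyme met for 15 min RT in pH 5.5 MES/DTT before substrate (15 min RT). The 29-480 His-tagged human enzyme was first activated by cathepsin L, then E-64 (10 μM).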

Compound | IC50 [µM]
CC(C)[C@@](C)(O)COc1cc(C(=O)NC(CC(=O)O)C2CCCCC2)nn1-c1ccccc1F (stereo partly drawn) [Example 786, 3-Cyclohexyl-3-{[1-(2-fluoro-phenyl)-5-((R)-2-hydroxy-2,3-dimethyl-butoxy)-1H-pyrazole-3-carbonyl]-amino}-propionic acid] | < 0.1
Cc1ccc([C@H](CC(=O)O)NC(=O)c2cc(OCC(C)(O)C(C)C)n(-c3ccccc3F)n2)cc1 (stereo partly drawn) [Example 787, (S)-3-{[1-(2-Fluoro-phenyl)-5-(2-hydroxy-2,3-dimethyl-butoxy)-1H-pyrazole-3-carbonyl]-amino}-3-p-tolyl-propionic acid] | < 0.1
Cc1ccc([C@H](CC(=O)O)NC(=O)c2cc(OC[C@H](O)C(C)(C)C)n(-c3ccccc3F)n2)cc1 [Example 788, (S)-3-{[1-(2-Fluoro-phenyl)-5-((R)-2-hydroxy-3,3-dimethyl-butoxy)-1H-pyrazole-3-carbonyl]-amino}-3-p-tolyl-propionic acid] | < 0.1
CC(C)(C)[C@](C)(O)COc1cc(C(=O)N[C@@H](CC(=O)O)c2ccccc2Cl)nn1-c1ccccc1F [Example 789, (S)-3-(2-Chloro-phenyl)-3-{[1-(2-fluoro-phenyl)-5-((S)-2-hydroxy-2,3,3-trimethyl-butoxy)-1H-pyrazole-3-carbonyl]-amino}-propionic acid] | < 0.1
CC(C)(C)[C@@](C)(O)COc1cc(C(=O)N[C@@H](CC(=O)O)c2ccccc2Cl)nn1-c1ccccc1F [Example 790, (S)-3-(2-Chloro-phenyl)-3-{[1-(2-fluoro-phenyl)-5-((R)-2-hydroxy-2,3,3-trimethyl-butoxy)-1H-pyrazole-3-carbonyl]-amino}-propionic acid] | < 0.1
Cc1ccc([C@H](CC(=O)O)NC(=O)c2cc(OCC(=O)C(C)(C)C)n(-c3ccccc3F)n2)cc1 [Example 791, (S)-3-{[5-(3,3-Dimethyl-2-oxo-butoxy)-1-(2-fluoro-phenyl)-1H-pyrazole-3-carbonyl]-amino}-3-p-tolyl-propionic acid] | < 0.1
Cc1cccc([C@H](CC(=O)O)NC(=O)c2cc(OC[C@@H](O)C(C)(C)C)n(-c3ccccc3F)n2)c1 [Example 792, (S)-3-{[1-(2-Fluoro-phenyl)-5-((S)-2-hydroxy-3,3-dimethyl-butoxy)-1H-pyrazole-3-carbonyl]-amino}-3-m-tolyl-propionic acid] | < 0.1
CC(C)(C)[C@@H](O)COc1cc(C(=O)N[C@@H](CC(=O)O)c2ccccc2Cl)nn1-c1ccccc1F [Example 793, (S)-3-(2-Chloro-phenyl)-3-{[1-(2-fluoro-phenyl)-5-((R)-2-hydroxy-3,3-dimethyl-butoxy)-1H-pyrazole-3-carbonyl]-amino}-propionic acid] | < 0.1

Same assay, conditions: read-out: Activity (2): Cathepsin A inhibitory activity, IC50 class

Compound | IC50 [µM]
CC(C)(C)[C@H](O)COc1cc(C(=O)N[C@@H](CC(=O)O)c2ccc(Cl)cc2)nn1-c1ccccc1F [Example 794, (S)-3-(4-Chloro-phenyl)-3-{[1-(2-fluoro-phenyl)-5-((S)-2-hydroxy-3,3-dimethyl-butoxy)-1H-pyrazole-3-carbonyl]-amino}-propionic acid] | < 0.1
CC(C)(C)[C@@H](O)COc1cc(C(=O)N[C@@H](CC(=O)O)c2cccc(Cl)c2)nn1-c1ccccc1F [Example 795, (S)-3-(3-Chloro-phenyl)-3-{[1-(2-fluoro-phenyl)-5-((R)-2-hydroxy-3,3-dimethyl-butoxy)-1H-pyrazole-3-carbonyl]-amino}-propionic acid] | < 0.1
CC(C)(C)C(=O)COc1cc(C(=O)N[C@@H](CC(=O)O)c2cccc(Cl)c2)nn1-c1ccccc1F [Example 796, (S)-3-(3-Chloro-phenyl)-3-{[5-(3,3-dimethyl-2-oxo-butoxy)-1-(2-fluoro-phenyl)-1H-pyrazole-3-carbonyl]-amino}-propionic acid] | < 0.1
CC(C)(C)[C@H](O)COc1cc(C(=O)N[C@@H](CC(=O)O)c2ccccc2Cl)nn1-c1ccccc1F [Example 797, (S)-3-(2-Chloro-phenyl)-3-{[1-(2-fluoro-phenyl)-5-((S)-2-hydroxy-3,3-dimethyl-butoxy)-1H-pyrazole-3-carbonyl]-amino}-propionic acid] | < 0.1
CC(C)(C)[C@](C)(O)COc1cc(C(=O)N[C@@H](CC(=O)O)c2cccc(Cl)c2)nn1-c1ccccc1F [Example 798, (S)-3-(3-Chloro-phenyl)-3-{[1-(2-fluoro-phenyl)-5-((S)-2-hydroxy-2,3,3-trimethyl-butoxy)-1H-pyrazole-3-carbonyl]-amino}-propionic acid] | < 0.1
CC(C)(C)[C@](C)(O)COc1cc(C(=O)N[C@@H](CC(=O)O)c2ccccc2C(F)(F)F)nn1-c1ccccc1F [Example 799, (S)-3-{[1-(2-Fluoro-phenyl)-5-((S)-2-hydroxy-2,3,3-trimethyl-butoxy)-1H-pyrazole-3-carbonyl]-amino}-3-(2-trifluoromethyl-phenyl)-propionic acid] | < 0.1
CC(C)(C)[C@H](O)COc1cc(C(=O)N[C@@H](CC(=O)O)c2cccc(Cl)c2Cl)nn1-c1ccccc1F [Example 800, (S)-3-(2,3-Dichloro-phenyl)-3-{[1-(2-fluoro-phenyl)-5-((S)-2-hydroxy-3,3-dimethyl-butoxy)-1H-pyrazole-3-carbonyl]-amino}-propionic acid] | < 0.1
Cc1ccc([C@H](CC(=O)O)NC(=O)c2cc(OC[C@@H](O)C(C)(C)C)n(-c3ccccc3F)n2)cc1 [Example 801, (S)-3-{[1-(2-Fluoro-phenyl)-5-((S)-2-hydroxy-3,3-dimethyl-butoxy)-1H-pyrazole-3-carbonyl]-amino}-3-p-tolyl-propionic acid] | < 0.1
COc1cccc([C@H](CC(=O)O)NC(=O)c2cc(OCC(C)(O)C(C)C)n(-c3ccccc3F)n2)c1 (stereo partly drawn) [Example 802, (S)-3-{[1-(2-Fluoro-phenyl)-5-(2-hydroxy-2,3-dimethyl-butoxy)-1H-pyrazole-3-carbonyl]-amino}-3-(3-methoxy-phenyl)-propionic acid] | < 0.1
CC(C)[C@](C)(O)COc1cc(C(=O)NC(CC(=O)O)C2CCCCC2)nn1-c1ccccc1F (stereo partly drawn) [Example 803, 3-Cyclohexyl-3-{[1-(2-fluoro-phenyl)-5-((S)-2-hydroxy-2,3-dimethyl-butoxy)-1H-pyrazole-3-carbonyl]-amino}-propionic acid] | < 0.1
Cc1cccc([C@H](CC(=O)O)NC(=O)c2cc(OC[C@H](O)C(C)(C)C)n(-c3ccccc3F)n2)c1 [Example 804, (S)-3-{[1-(2-Fluoro-phenyl)-5-((R)-2-hydroxy-3,3-dimethyl-butoxy)-1H-pyrazole-3-carbonyl]-amino}-3-m-tolyl-propionic acid] | < 0.1
Cc1cccc([C@H](CC(=O)O)NC(=O)c2cc(OCC(=O)C(C)(C)C)n(-c3ccccc3F)n2)c1 [Example 805, (S)-3-{[5-(3,3-Dimethyl-2-oxo-butoxy)-1-(2-fluoro-phenyl)-1H-pyrazole-3-carbonyl]-amino}-3-m-tolyl-propionic acid] | < 0.1
COc1cccc([C@H](CC(=O)O)NC(=O)c2cc(OC[C@](C)(O)C(C)C)n(-c3ccccc3F)n2)c1 [Example 806, (S)-3-{[1-(2-Fluoro-phenyl)-5-((R)-2-hydroxy-2,3-dimethyl-butoxy)-1H-pyrazole-3-carbonyl]-amino}-3-(3-methoxy-phenyl)-propionic acid] | < 0.1

Same assay, conditions: recombinant human cathepsin A 833 ng/ml, Bodipy FL-labeled bradykinin 2 μM, pH 5.5; read-out: CATH-A IC50

Compound | IC50 [µM]
CC(C)[C@](C)(O)COc1cc(C(=O)NC(CC(=O)O)C2CCCCC2)nn1-c1ccccc1F (stereo partly drawn) [Example 803, 3-Cyclohexyl-3-{[1-(2-fluoro-phenyl)-5-((S)-2-hydroxy-2,3-dimethyl-butoxy)-1H-pyrazole-3-carbonyl]-amino}-propionic acid] | 0.0267
